According to patent US11492366B2, “Platinum compounds for binding guanine quadruplexes” (QUEEN'S UNIVERSITY AT KINGSTON, priority 2017, dated 2022):

Tests used:
Fc-mycT = test: FRET melting assay, Fc-mycT; format: binding; conditions: DNA quadruplex; 0.2 μM binder, 0.1 μM oligonucleotide, K+ buffer; dichloride salts
Description: (§1) All samples tested are guanine quadruplexes except FdxT, which is in duplex form. Binding of G4s by the specified binders of Formula (1) was shown.
(§2) 96-Well plate FRET melting assays were adapted from literature protocols (A. De Rache, J.-L. Mergny, Biochimie (2015),115: 194-202) and conducted using a Strategene Mx3005P real-time PCR apparatus. G4 oligonucleotides labelled with 5′-FAM (6-carboxyfluorescein) and 3′-TAMRA (6-carboxytetramethylrhodamine) fluorophores were folded by rapid annealing in buffer (2 min. at 90° C. followed by cooling in ice). The FAM fluorescent tag was excited at 492 nm and its emission followed at 516 nm while the plates were incubated at 25° C. (5 min.) and then heated (1° C./min) to 95° C. Each condition was repeated in duplicate, and every experiment was repeated at least three times for reproducibility. Final oligonucleotide concentration ([…]) and buffer conditions (10 mM lithium cacodylate, pH 7.2 with either 10 mM potassium chloride/90 mM lithium chloride or 100 mM sodium chloride for DNA, or with 1 mM potassium chloride and 99 mM lithium chloride for RNA) were kept constant. T1/2 values were obtained as the temperature at which the normalized fluorescence emission is 0.5, with ΔT1/2=T1/2 (G4+ binder) — T1/2 (G4). […]

F21CTAT = test: FRET melting assay, F21CTAT; format: binding; conditions: DNA quadruplex; 0.2 μM binder, 0.1 μM oligonucleotide, K+ buffer; dichloride salts
Description: as §1, §2

22AG [1] = test: FID titration (thiazole orange displacement) and data fitting; format: binding, human; conditions: K buffer, error 3σ × standard deviation
Experimental: Specifically, such titrations involve the addition of a binder to a thiazole orange (TO):22AG complex (0.25 or 0.5 μM DNA) in potassium buffer (10 mM lithium cacodylate buffer (pH 7.2) and 100 mM KCl). FIG. 4A provides an example of the blank-, baseline-, and volume-corrected fluorescence spectra obtained from the titration of Pt(2)2 with TO-22AG. […] Previous experiments indicate that the fluorophore binds to the quadruplex in a 1:1 TO:22AG stoichiometry, thus potentially leaving a second binding site unoccupied on the other terminal guanine tetrad of 22AG. […]
FID assays were adapted from literature protocols (Monchaud et al., Biochimie (2008) 90: 1207-23). […] In order to derive binding constants from FID data, fluorescence titrations monitoring the binding of TO to the quadruplex examined were first performed in triplicate. A TO-G4 binding constant was determined by data fitting using the HypSpec2014 software (see below). […]
Experiments were performed in a 1.5 mL cell at 25° C. […] Following a 3 minute equilibrium period after each addition, the fluorescence emission spectrum was recorded (λex=501 nm, λem=510-750 nm, bandwidth 5 nm, step size 1 nm). […]
A blank sample containing only buffer was measured in a 1.5 mL fluorescence cuvette to serve as reference. […]

F21RT = test: FRET melting assay, F21RT; format: binding; conditions: RNA quadruplex; 0.2 μM binder, 0.1 μM oligonucleotide, K+ buffer (1 mM KCl/99 mM LiCl for RNA); dichloride salts
Description: as §1, §2

F25cebT = test: FRET melting assay, F25cebT; format: binding; conditions: DNA quadruplex; 0.2 μM binder, 0.1 μM oligonucleotide, K+ buffer; dichloride salts
Description: as §1, §2

FBom17T = test: FRET melting assay, FBom17T; format: binding; conditions: DNA quadruplex; 0.2 μM binder, 0.1 μM oligonucleotide, K+ buffer; dichloride salts
Description: as §1, §2

FdxT = test: FRET melting assay, FdxT duplex; format: binding; conditions: DNA duplex; 0.2 μM binder, 0.1 μM oligonucleotide, K+ buffer; dichloride salts
Description: as §1, §2

F21T = test: FRET melting assay, F21T; format: binding; conditions: DNA quadruplex; 0.2 μM binder, 0.1 μM oligonucleotide, K+ buffer; dichloride salts
Description: as §1, §2

FTBAT = test: FRET melting assay, FTBAT; format: binding; conditions: DNA quadruplex; 0.2 μM binder, 0.1 μM oligonucleotide, K+ buffer; dichloride salts
Description: as §1, §2

guanine quadruplexes = test: FRET melting assays, overall statements; format: binding; conditions: 0.2 μM binder
Description: as §1, §2

22AG [2] = test: Circular dichroism titration, 22AG; format: binding, human; conditions: for Binder-induced conformational change of 22AG from hybrid to antiparallel (CD): K+ buffer (100 mM KCl), 0-5 equivalents binder
Experimental: Referring to FIGS. 3A and 3B, representative CD spectra from titrations where binders are added to A) 22AG and B) c-myc in potassium buffer (10 mM lithium cacodylate buffer (pH 7.2) and 100 mM KCl) are provided. Specifically, these graphs show changes in Δ A upon addition of Pt(11)2 (0-5 equivalents). Such experiments were performed for all novel binders of Formula (1) described in Table 1 with the exception of Pt(6)2.
The latter phenomenon is of particular interest in the case of the polymorphic quadruplex 22AG, which can adopt parallel, hybrid, and/or antiparallel topologies. […] The interactions of all novel binders of Formula (1) except Pt(6)2 (see Table 1) with 22AG and c-myc have been confirmed through similar CD titrations. In FIG. 3A, spectral changes such as the appearance of a peak at […] are consistent with a conformational change from a hybrid to an antiparallel 22AG quadruplex (Randazzo et al, Top. Curr. Chem. (2013) 330: 67-86).
500 μL Aliquots of 22AG and c-myc were folded at 3 μM by rapid annealing (2 min. at 90° C. followed by cooling in ice) in 10 mM lithium cacodylate (pH 7.2) and 100 mM potassium chloride. G4 binders were prepared in the same buffer at 37.5 or 75 μM, such that 0.5 equiv. binder was equivalent to 10 or 20 μL additions. Spectra at 0, 0.5, 1.0, 1.5, 2.0, 3.0, and 5.0 equivalents of binder added to G4 were acquired after 15 minutes of equilibration. Each spectrum was collected using a Jasco J-815 spectrometer with the following experimental parameters: wavelength range: 200-500 nm, data pitch: 1 nm, D.I.T.: 0.5 s, scan speed: 100 nm/min, accumulations: 3. Acquired data was then blank-corrected and baseline-corrected. Curves were smoothed by taking the average of the ellipticity data from the preceding 4 wavelengths as well as the current wavelength.

SMILES | Average Binder-Induced Stabilization of Melting Temperature (ΔT1/2), Fc-mycT (Fc-mycT) [°C] | Average Binder-Induced Stabilization of Melting Temperature (ΔT1/2), F21CTAT (F21CTAT) [°C] | Average Log(β), 2:1 binder:G4 complex (22AG [1]) [M^−2] | Average Binder-Induced Stabilization of Melting Temperature (ΔT1/2), F21RT (F21RT) [°C] | Average Binder-Induced Stabilization of Melting Temperature (ΔT1/2), F25cebT (F25cebT) [°C] | Average Binder-Induced Stabilization of Melting Temperature (ΔT1/2), FBom17T (FBom17T) [°C] | Average Binder-Induced Stabilization of Melting Temperature (ΔT1/2), FdxT (FdxT) [°C] | Average Binder-Induced Stabilization of Melting Temperature (ΔT1/2), F21T (F21T) [°C] | Average Binder-Induced Stabilization of Melting Temperature (ΔT1/2), FTBAT (FTBAT) [°C] | Stabilization / binding of guanine quadruplexes (in words) (guanine quadruplexes) | Binder-induced conformational change of 22AG from hybrid to antiparallel (CD) (22AG [2]) | Preferentially bound topology of human telomeric 22AG (22AG [2]; in potassium)
C[n+]1cc(NC(=O)c2ccc3ccc4ccc(C(=O)Nc5cc6ccccc6[n+](C)c5)nc4c3n2)cc2ccccc21 [Phen-DC3, reference compound] | 11.3 | 11.7 | 16.0 ± 1.3 | 13.3 | >8.5 | 3.2 | 0.6 | 16.4 | 6.4 | – | – | –
C#Cc1ccc2[n+](c1)[Pt-2]1([n+]3cc(C#C)ccc3-c3n4ccccc4n[n+]31)[n+]1nc3ccccn3c1-2 [Pt(6)2] | 0.2 | 1.9 | – | 4.5 | 0.9 | 0.7 | 0.4 | 0.9 | 1.8 | binding was minimal | – | –
CC(C)(C)OC(=O)Nc1ccc2n[n+]3c(n2c1)-c1cccc[n+]1[Pt-2]31[n+]2ccccc2-c2n3cc(NC(=O)OC(C)(C)C)ccc3n[n+]21 [Pt(17)2] | – | – | – | – | – | – | – | – | – | – | no conformational changes are observed | preferentially bind to a hybrid topology
CC(=O)NCC(=O)Nc1ccc2n[n+]3c(n2c1)-c1cccc[n+]1[Pt-2]31[n+]2ccccc2-c2n3cc(NC(=O)CNC(C)=O)ccc3n[n+]21 [Pt(18)2] | – | – | – | – | – | – | – | – | – | – | to a lesser extent | –
CC(=O)NCC(=O)NCC(=O)Nc1ccc2n[n+]3c(n2c1)-c1cccc[n+]1[Pt-2]31[n+]2ccccc2-c2n3cc(NC(=O)CNC(=O)CNC(C)=O)ccc3n[n+]21 [Pt(19)2] | – | – | – | – | – | – | – | – | – | – | to a lesser extent | –
